Measured values published in patent publication US20220144823A1, “PYRAZOLOPYRIDINE DERIVATIVES AS INHIBITORS OF PASK” (Galapagos NV, priority 2019, published 2022).

Columns and labels:
human PASK [1] = target: T1, human PASK (Homo sapiens, UniProt Q96RG2); assay: 33P radioactive kinase assay; type: biochemical; settings: 33P radioactive PASK kinase assay, 10 μM ATP, ZIPtide 1 μM
T1 construct: purchased ThermoFisher Scientific PR7013A
Procedure: The principle of the ^33P radioactive kinase assay consists in measuring the incorporated ^33P into the ZIPtide peptide substrate when phosphorylated by human PASK using [^33P]-[…]-ATP and ATP, which correlates with kinase activity.
The test compounds are prepared as a serial dilution of 10 point dose responses with 1/5 dilution steps in 100% DMSO starting from 0.2 or 2 mM highest concentration, diluted 1/20 in water and 5 μL is transferred to the assay plates (Greiner, Cat #651201).
(§1) 1% DMSO and 10 μM staurosporine final concentrations are used respectively as negative and positive controls.
11 μL of enzyme-substrate mixture is added on the assay plates. The reactions are started by adding 9 μL ATP mixture, consisting of non-labeled and ^33P-labeled ATP, on the assay plates.
The reactions are stopped by adding 25 μL phosphoric acid (150 mM) to the reactions.
The completely terminated kinase reactions are transferred using a harvester on pre-wetted UniFilter-96 plates (UniFilter-96 GF/B, PerkinElmer Inc., Cat #6005177).
After harvesting the kinase reactions, the filter plates are washed 6 times with phosphoric acid (75 mM). The back of the UniFilter-96 plates are sealed and 40 μL MicroScint-20 (PerkinElmer Inc., Cat #6013621) is added to each well. The top of each plate is sealed with TopSeal-A (PerkinElmer Inc., Cat #6050185). Read-out is performed with a TopCount instrument (PerkinElmer Inc.).
Raw data are generated following the read-out performed on the TopCount, used to calculate percentage inhibition (PIN) values and plotted to generate dose response curves and derive the average half maximal inhibitory concentrations (IC50) reported in Table VI.

human PASK [2] = target: T1, human PASK; assay: ADP-Glo kinase assay; type: biochemical; settings: ADPGlo PASK kinase assay, 25 μM ATP, ZIPtide 25 μM
Procedure: The ADP-Glo™ kinase assay is a luminescent technology assay which measures the ADP formed from a kinase reaction. In this specific study, the kinase reactions consisted of the phosphorylation of the ZIPtide peptide substrate by human recombinant PASK. In a second step the kinase reaction is terminated and all the remaining ATP is depleted. In a final step the ADP is converted into ATP and this newly synthesized ATP is measured by using a luciferase/luciferin reaction. The generated light is measured using an Envision plate reader, wherein the luminescent signal obtained positively correlates with the kinase activity.
The test compounds are prepared as a serial dilution of 10 point dose responses with 1/5 dilution steps in 100% DMSO starting from 2 mM highest concentration, diluted 1/20 in water and 1 μL is transferred to the assay plates (PerkinElmer Inc., Cat #6007290).
as §1
2 μL enzyme-substrate mixture is added to the assay plates.
The reaction is started by adding 2 μL diluted ATP on the assay plates immediately after addition of the enzyme-substrate mixture to the compound. Plates are centrifuged for a few seconds at 1000 rpm and gently shaken for 2 min followed by an incubation at RT for 120 min.
The reactions are stopped and the unconsumed ATP is depleted by adding 5 μL ADP-Glo Reagent (Promega, Cat #V912B) to the reaction. The plates are centrifuged for a few seconds at 1000 rpm and incubated at RT for 40 min (ATP depletion).
The ADP is converted to ATP and luciferase and luciferin is introduced to detect ATP by adding 10 μL Kinase Detection Reagent (Promega, Cat #V913B+V914B) to the reaction. The plates are centrifuged for a few seconds at 1000 rpm and incubated at RT for 30 min (ADP detection).
Luminescence is measured on an Envision plate reader (PerkinElmer Inc.).
Raw data are generated following the read-out performed on the Envision plate reader, used to calculate percentage inhibition (PIN) values and plotted to generate dose response curves and derive the average half maximal inhibitory concentrations (IC50) reported in Table VIII.

T1 sequence (Q96RG2 whole entry): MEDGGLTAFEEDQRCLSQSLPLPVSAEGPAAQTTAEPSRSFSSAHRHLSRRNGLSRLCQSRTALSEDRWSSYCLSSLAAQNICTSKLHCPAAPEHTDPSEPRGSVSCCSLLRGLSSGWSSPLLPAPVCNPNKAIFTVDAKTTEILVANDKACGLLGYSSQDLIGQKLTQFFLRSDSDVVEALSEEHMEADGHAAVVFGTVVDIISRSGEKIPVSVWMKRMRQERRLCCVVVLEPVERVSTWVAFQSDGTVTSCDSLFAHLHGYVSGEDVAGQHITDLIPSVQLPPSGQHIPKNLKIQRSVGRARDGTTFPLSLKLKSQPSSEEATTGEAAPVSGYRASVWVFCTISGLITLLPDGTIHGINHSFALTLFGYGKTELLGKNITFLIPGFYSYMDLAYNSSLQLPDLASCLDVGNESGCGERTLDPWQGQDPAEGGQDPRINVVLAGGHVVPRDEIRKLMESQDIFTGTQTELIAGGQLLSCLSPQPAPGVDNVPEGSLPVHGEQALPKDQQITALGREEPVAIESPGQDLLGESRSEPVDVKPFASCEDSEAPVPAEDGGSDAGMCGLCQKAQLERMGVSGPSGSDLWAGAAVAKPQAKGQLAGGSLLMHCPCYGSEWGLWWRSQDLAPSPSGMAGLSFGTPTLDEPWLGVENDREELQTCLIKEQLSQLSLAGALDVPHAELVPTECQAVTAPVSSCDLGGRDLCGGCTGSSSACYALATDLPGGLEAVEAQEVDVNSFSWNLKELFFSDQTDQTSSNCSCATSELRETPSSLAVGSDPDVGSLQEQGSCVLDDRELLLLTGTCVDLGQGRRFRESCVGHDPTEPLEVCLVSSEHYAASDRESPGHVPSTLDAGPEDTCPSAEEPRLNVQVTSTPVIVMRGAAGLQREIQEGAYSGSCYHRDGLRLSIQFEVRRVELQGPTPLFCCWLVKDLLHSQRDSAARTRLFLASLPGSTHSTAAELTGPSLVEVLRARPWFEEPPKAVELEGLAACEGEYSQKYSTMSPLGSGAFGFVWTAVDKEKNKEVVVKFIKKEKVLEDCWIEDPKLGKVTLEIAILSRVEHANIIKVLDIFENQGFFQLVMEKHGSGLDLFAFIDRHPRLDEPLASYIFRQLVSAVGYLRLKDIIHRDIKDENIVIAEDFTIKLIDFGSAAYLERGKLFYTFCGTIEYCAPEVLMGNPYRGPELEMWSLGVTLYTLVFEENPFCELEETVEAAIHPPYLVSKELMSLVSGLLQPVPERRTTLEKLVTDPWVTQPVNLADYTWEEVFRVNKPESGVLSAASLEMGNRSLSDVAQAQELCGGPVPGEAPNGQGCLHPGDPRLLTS

IC50 (human PASK [1]) [nM] | IC50 (human PASK [2]) [nM] | Structure (SMILES)
10 to 100 | 10 to 100 | Cc1noc(C)c1-c1cnn2ccc(-c3nc(C(=O)O)c(C)o3)cc12 [Cpd 34, 2-[3-(3,5-dimethylisoxazol-4-yl)pyrazolo[1,5-a]pyridin-5-yl]-5-methyl-oxazole-4-carboxylic acid]
0.01 to 10 | – | CCc1oc(-c2ccn3ncc(-c4c(C)nn(C)c4C)c3c2)cc1C(=O)O [Cpd 26, 2-ethyl-5-[3-(1,3,5-trimethylpyrazol-4-yl)pyrazolo[1,5-a]pyridin-5-yl]furan-3-carboxylic acid]
0.01 to 10 | 0.01 to 10 | Cc1noc(C)c1-c1cnn2ccc(-c3nc(C4CC4)c(C(=O)O)s3)cc12 [Cpd 37, 4-cyclopropyl-2-[3-(3,5-dimethylisoxazol-4-yl)pyrazolo[1,5-a]pyridin-5-yl]thiazole-5-carboxylic acid]
10 to 100 | – | Cc1nn(C)c(C)c1-c1cnn2ccc(-c3cc(C(=O)NS(=O)(=O)C4CC4)co3)cc12 [Cpd 22, N-cyclopropylsulfonyl-5-[3-(1,3,5-trimethylpyrazol-4-yl)pyrazolo[1,5-a]pyridin-5-yl]furan-3-carboxamide]
0.01 to 10 | 0.01 to 10 | Cc1nn(C)cc1-c1cnn2ccc(-c3cc(C(=O)O)co3)cc12 [Cpd 14, 5-[3-(1,3-dimethylpyrazol-4-yl)pyrazolo[1,5-a]pyridin-5-yl]furan-3-carboxylic acid]
0.01 to 10 | – | Cc1noc(C)c1-c1cnn2ccc(-c3cc(C(=O)O)c(C4=CCOCC4)o3)cc12 [Cpd 41, 2-(3,6-dihydro-2H-pyran-4-yl)-5-[3-(3,5-dimethyl-isoxazol-4-yl)pyrazolo[1,5-a]pyridin-5-yl]furan-3-carboxylic acid]
0.01 to 10 | 0.01 to 10 | Cc1nn(C(C)C)c(C)c1-c1cnn2ccc(-c3ncc(C(=O)O)s3)cc12 [Cpd 30, 2-[3-(1-isopropyl-3,5-dimethyl-pyrazol-4-yl)pyrazolo[1,5-a]pyridin-5-yl]thiazole-5-carboxylic acid]
0.01 to 10 | – | Cc1noc(C)c1-c1cnn2ccc(-c3ncc(C(=O)O)o3)cc12 [Cpd 24, 2-[3-(3,5-dimethylisoxazol-4-yl)pyrazolo[1,5-a]pyridin-5-yl]oxazole-5-carboxylic acid]
0.01 to 10 | – | Cn1cc(-c2cnn3ccc(-c4cc(C(=O)O)c(C(=O)Nc5ccccc5)o4)cc23)cn1 [Cpd 1, 5-[3-(1-methylpyrazol-4-yl)pyrazolo[1,5-a]pyridin-5-yl]-2-(phenylcarbamoyl) furan-3-carboxylic acid]
0.01 to 10 | – | COc1nc(-c2ccn3ncc(-c4c(C)nn(C)c4C)c3c2)sc1C(N)=O [Cpd 11, 4-methoxy-2-[3-(1,3,5-trimethylpyrazol-4-yl)pyrazolo[1,5-a]pyridin-5-yl]thiazole-5-carboxamide]
0.01 to 10 | – | Cc1noc(C)c1-c1cnn2ccc(-c3cc(C(=O)O)c(C)o3)cc12 [Cpd 19, 5-[3-(3,5-dimethylisoxazol-4-yl)pyrazolo[1,5-a]pyridin-5-yl]-2-methyl-furan-3-carboxylic acid]
0.01 to 10 | 0.01 to 10 | Cc1noc(C)c1-c1cnn2ccc(-c3cc(C(=O)O)co3)cc12 [Cpd 4, 5-[3-(3,5-dimethylisoxazol-4-yl)pyrazolo[1,5-a]pyridin-5-yl]furan-3-carboxylic acid]
0.01 to 10 | 0.01 to 10 | Cc1nn(C)c(C)c1-c1cnn2ccc(-c3cc(C(=O)O)c(C4CC4)o3)cc12 [Cpd 15, 2-cyclopropyl-5-[3-(1,3,5-trimethylpyrazol-4-yl)pyrazolo[1,5-a]pyridin-5-yl]furan-3-carboxylic acid]
0.01 to 10 | – | Cc1nn(C(C)C)c(C)c1-c1cnn2ccc(-c3nc(C(F)F)c(C(=O)O)s3)cc12 [Cpd 46, 4-(difluoromethyl)-2-[3-(1-isopropyl-3,5-dimethyl-pyrazol-4-yl)pyrazolo[1,5-a]pyridin-5-yl]thiazole-5-carboxylic acid]
100 to 500 | 100 to 500 | Cc1noc(C)c1-c1cnn2ccc(-c3nc(C(F)(F)F)c(C(=O)O)o3)cc12 [Cpd 36, 2-[3-(3,5-dimethylisoxazol-4-yl)pyrazolo[1,5-a]pyridin-5-yl]-4-(trifluoromethyl) oxazole-5-carboxylic acid]
10 to 100 | – | Cc1noc(C)c1-c1cnn2ccc(-c3ccc(C(=O)O)o3)cc12 [Cpd 31, 5-[3-(3,5-dimethylisoxazol-4-yl)pyrazolo[1,5-a]pyridin-5-yl]furan-2-carboxylic acid]
10 to 100 | – | Cc1nn(C)c(C)c1-c1cnn2ccc(-c3cc(C(=O)OCC(=O)N(C)C)co3)cc12 [Cpd 7, [2-(dimethylamino)-2-oxo-ethyl] 5-[3-(1,3,5-trimethylpyrazol-4-yl)pyrazolo[1,5-a]pyridin-5-yl]furan-3-carboxylate]
0.01 to 10 | 0.01 to 10 | CCn1nc(C)c(-c2cnn3ccc(-c4ncc(C(=O)O)s4)cc23)c1C [Cpd 29, 2-[3-(1-ethyl-3,5-dimethyl-pyrazol-4-yl)pyrazolo[1,5-a]pyridin-5-yl]thiazole-5-carboxylic acid]
0.01 to 10 | – | Cc1nn(C)c(C)c1-c1cnn2ccc(-c3cc(C(=O)O)c(C)o3)cc12 [Cpd 16, 2-methyl-5-[3-(1,3,5-trimethylpyrazol-4-yl)pyrazolo[1,5-a]pyridin-5-yl]furan-3-carboxylic acid]
0.01 to 10 | – | Cc1nn(C)c(C)c1-c1cnn2ccc(-c3cc(C(=O)O)c(CC(C)C)o3)cc12 [Cpd 27, 2-isobutyl-5-[3-(1,3,5-trimethylpyrazol-4-yl)pyrazolo[1,5-a]pyridin-5-yl]furan-3-carboxylic acid]
0.01 to 10 | – | Cc1noc(C)c1-c1cnn2ccc(-c3ncc(C(=O)O)s3)cc12 [Cpd 25, 2-[3-(3,5-dimethylisoxazol-4-yl)pyrazolo[1,5-a]pyridin-5-yl]thiazole-5-carboxylic acid]
0.01 to 10 | 0.01 to 10 | Cc1noc(C)c1-c1cnn2ccc(-c3cc(C(=O)O)c(C4CCOCC4)o3)cc12 [Cpd 44, 5-[3-(3,5-dimethylisoxazol-4-yl)pyrazolo[1,5-a]pyridin-5-yl]-2-tetrahydropyran-4-yl-furan-3-carboxylic acid]
10 to 100 | – | CCOC(=O)c1coc(-c2ccn3ncc(-c4c(C)nn(C)c4C)c3c2)c1 [Cpd 6, ethyl 5-[3-(1,3,5-trimethylpyrazol-4-yl)pyrazolo[1,5-a]pyridin-5-yl]furan-3-carboxylate]
10 to 100 | – | Cc1nn(C)c(C)c1-c1cnn2ccc(-c3cc(C(=O)NS(C)(=O)=O)co3)cc12 [Cpd 21, N-methylsulfonyl-5-[3-(1,3,5-trimethylpyrazol-4-yl)pyrazolo[1,5-a]pyridin-5-yl]furan-3-carboxamide]
10 to 100 | – | Cn1cc(-c2cnn3ccc(-c4cc(C(=O)O)co4)cc23)cn1 [Cpd 3, 5-[3-(1-methylpyrazol-4-yl)pyrazolo[1,5-a]pyridin-5-yl]furan-3-carboxylic acid]
10 to 100 | – | Cc1c(-c2cnn3ccc(-c4nc(C(=O)O)co4)cc23)cnn1C [Cpd 33, 2-[3-(1,5-dimethylpyrazol-4-yl)pyrazolo[1,5-a]pyridin-5-yl]oxazole-4-carboxylic acid]
10 to 100 | – | Cc1noc(C)c1-c1cnn2ccc(-c3nc(C(F)F)c(C(=O)O)s3)cc12 [Cpd 45, 4-(difluoromethyl)-2-[3-(3,5-dimethylisoxazol-4-yl)pyrazolo[1,5-a]pyridin-5-yl]thiazole-5-carboxylic acid]
10 to 100 | – | COC(=O)c1coc(-c2ccn3ncc(-c4c(C)nn(C)c4C)c3c2)c1 [Cpd 5, methyl 5-[3-(1,3,5-trimethylpyrazol-4-yl)pyrazolo[1,5-a]pyridin-5-yl]furan-3-carboxylate]
